Data published in patent publication US12435060B2, “Acylamino bridged heterocyclic compound, and composition and application thereof” (BEIJING SCITECH-MQ PHARMACEUTICALS LIMITED, priority 2019, dated 2025).

Key:
[1] = biological target: T1, RIPK1 (Homo sapiens, UniProt Q13546); experiment: Western blot determination of inhibition of RIPK1 phosphorylation in HT29 cells; type: cell-based; details: Z-VAD-FMK 20 μM, TNF-α 20 ng/mL, AT-406 100 nM, 7 hours, FIG. 1 and FIG. 2
T1 construct: the phosphorylation of intracellular RIPK1 during the induction of programmed necrosis of HT29 cells; endogenous in cells; host or cells: HT29 cells
T1 sequence (Q13546 1-671): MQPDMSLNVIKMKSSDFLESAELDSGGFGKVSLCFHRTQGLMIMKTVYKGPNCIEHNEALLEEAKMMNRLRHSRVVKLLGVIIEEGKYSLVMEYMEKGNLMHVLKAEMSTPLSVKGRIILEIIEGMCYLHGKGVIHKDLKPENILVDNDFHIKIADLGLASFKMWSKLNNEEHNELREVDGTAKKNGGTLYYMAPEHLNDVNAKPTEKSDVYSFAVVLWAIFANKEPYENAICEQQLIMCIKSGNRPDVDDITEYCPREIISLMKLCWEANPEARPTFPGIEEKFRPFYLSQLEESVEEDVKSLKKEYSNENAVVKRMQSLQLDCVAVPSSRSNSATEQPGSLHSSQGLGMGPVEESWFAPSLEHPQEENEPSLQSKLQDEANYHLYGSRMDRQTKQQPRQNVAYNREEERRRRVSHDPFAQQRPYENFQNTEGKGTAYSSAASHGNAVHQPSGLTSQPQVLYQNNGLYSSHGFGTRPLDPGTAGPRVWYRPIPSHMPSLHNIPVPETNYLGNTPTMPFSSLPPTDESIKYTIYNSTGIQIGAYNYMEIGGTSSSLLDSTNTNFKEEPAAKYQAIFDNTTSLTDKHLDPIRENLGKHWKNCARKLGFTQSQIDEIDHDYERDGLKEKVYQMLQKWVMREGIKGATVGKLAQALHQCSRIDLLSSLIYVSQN
Description: Assay Example 1. Western Blot Determination of Inhibition of Compounds on RIPK1 Phosphorylation in HT29 Cells
Western blot was used to determine the effect of the test compounds on the phosphorylation of intracellular RIPK1 during the induction of programmed necrosis of HT29 cells, verifying the effect of compounds on RIPK1 phosphorylation, and initially estimating the IC50 range of compounds for RIPK1 phosphorylation.
II. Experiment Procedure • 1. […] 40-50 ug of protein sample to be determined or pre-stained two-color protein molecular weight standard were added to each well. • 4. […]

[2] = test system: HT29 cells; experiment: Inhibition of cell necrosis (CCK8 method), induced programmed necrosis of HT29 cells; type: cell-based; details: Homo sapiens, HT-29; rescue from necrosis induced by TNF-α 20 ng/mL, AT-406 1 μM, Z-VAD-FMK 20 μM; 16-20 hours; CCK-8, OD 450 nm
Method in brief: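 HT29 cells in McCOY's 5A with 10% FBS were pre-treated for 30 min with compound (9 fourfold steps, 25000 to 0.38 nM final, 0.25% DMSO). Necrosis was then induced with TNF-α 20 ng/mL, AT-406 1 μM and Z-VAD-FMK 20 μM for 16-20 h. Viability was read by CCK-8 OD450, normalized between uninduced and induced wells, and IC50 was curve-fitted.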

For `Cc1ccccc1-c1ccnc(NC(=O)c2nnc(Cc3ccccc3)[nH]2)c1` [Example 2, 5-benzyl-N-(4-(o-methylphenyl)pyridin-2-yl)-4H-1,2,4-triazole-3-carboxamide], the “inhibition of RIPK1 phosphorylation” value [1] was “directly inhibit the phosphorylation activation of RIPK1” and the IC50 [2] was 100 to 1000 nM.
